According to patent EP4653437A2 (Innovo Therapeutics Inc., priority 2023, dated 2024):

Tests used:
A549 cells = test: Measurement of PGE2-increasing activity in A549 cells (IL-1β stimulated, PGE2 quantified in supernatant); type: cell-based; conditions: Homo sapiens, 24 h; concentration of 1 µM of each compound; IL-1β treated A549 cells; read-out: Increased PGE2 production in A549 cells
Summary of the method: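 PGE2 secreted into the supernatant was measured by immunoassay 24 h after treatment. Before treatment, A549 cells were cultured 24 h in 10% FBS F12K, washed, and placed in serum-free medium containing compound (DMSO 0.1% final) plus or minus IL-1β, incubated at 37 °C, 5% CO2.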

human 15-PGDH = biological target: T1, human 15-PGDH (Homo sapiens, UniProt P15428); test: Evaluation of 15-PGDH inhibitory activity (fluorescence enzyme assay, NAD+/PGE2); type: biochemical; conditions: human 15-PGDH enzyme, fluorescence Vmax
T1 construct: purchased R&D System 5660-DH
T1 sequence (P15428 1-266): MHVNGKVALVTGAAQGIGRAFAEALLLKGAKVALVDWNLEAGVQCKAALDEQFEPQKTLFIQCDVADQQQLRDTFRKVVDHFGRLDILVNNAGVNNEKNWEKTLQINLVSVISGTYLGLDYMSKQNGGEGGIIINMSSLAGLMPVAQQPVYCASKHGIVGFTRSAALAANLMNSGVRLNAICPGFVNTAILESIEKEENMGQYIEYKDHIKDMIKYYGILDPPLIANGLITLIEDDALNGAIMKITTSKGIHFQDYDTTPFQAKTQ
Method: 15-PGDH inhibition activity of Example compounds was measured as follows. 6.7 ng of human 15-PGDH (R&D System# 5660-DH) enzyme (10 µL) was added to a black 96 well plate, 60 µL of buffer (50 mM Tris-HCl, pH 7.5, 0.01% Tween 20) was added, and 10 µL of 200 µM β-Nicotinamide adenine dinucleotide sodium salt (Sigma, Cat# N0632-5G) was added. 10 µL of (10x) compound solution in DMSO was added and reacted for 10 minutes at room temperature.

SMILES | fold induction at 1 µM (A549 cells) | IC50 (human 15-PGDH) [nM]
O=C(c1cncc(-c2cccc3c(C(=O)N4CCCCC4)cnn23)c1)N1CC(F)C1 [Example 192, (3-fluoroazetidin-1-yl)(5-(3-(piperidine-1-carbonyl)pyrazolo[1,5-a]pyridin-7-yl)pyridin-3-yl)methanone] | > 1.5 | ≤ 100
N#Cc1ncc(-c2cccc3c(C(=O)N4CCCCC4)cnn23)cc1F [Example 205, 3-fluoro-5-[3-(piperidine-1-carbonyl)pyrazolo[1,5-a]pyridin-7-yl]pyridine-2-carbonitrile] | > 1.5 | ≤ 100
O=C1NCc2ccc(-c3cccc4c(C(=O)N5CCCC(F)(F)C5)cnn34)cc21 [Example 382, 6-(3-(3,3-difluoropiperidine-1-carbonyl)pyrazolo[1,5-a]pyridin-7-yl)isoindolin-1-one] | > 1.5 | ≤ 100
CN(C)CCNC(=O)c1ccc(-c2cccc3c(C(=O)N4CCCCC4)cnn23)cc1 [Example 63, N-(2-(dimethylamino)ethyl)-4-(3-(piperidine-1-carbonyl)pyrazolo[1,5-a]pyridin-7-yl)benzamide] | > 1.5 | ≤ 100
O=C(Cc1cncnc1)Nc1ccc(-c2cccc3c(C(=O)N4CCCCC4)cnn23)cn1 [Example 407, N-[5-[3-(piperidine-1-carbonyl)pyrazolo[1,5-a]pyridin-7-yl]-2-pyridyl]-2-pyrimidin-5-yl-acetamide] | > 1.5 | ≤ 100
NC(=O)Nc1cccc(-c2cccc3c(C(=O)N4CCCCC4)cnn23)c1 [Example 92, 1-(3-(3-(piperidine-1-carbonyl)pyrazolo[1,5-a]pyridin-7-yl)phenyl)urea] | > 1.5 | ≤ 100
N#Cc1cc(-c2cccc3c(C(=O)N4CCCCC4)cnn23)cc([N+](=O)[O-])c1 [Example 312, 3-nitro-5-(3-(piperidine-1-carbonyl)pyrazolo[1,5-a]pyridin-7-yl)benzonitrile] | > 1.5 | ≤ 100
N#Cc1ccc(-c2cccc3c(C(=O)N4CCCCC4)cnn23)cc1 [Example 15, 4-(3-(piperidine-1-carbonyl)pyrazolo[1,5-a]pyridin-7-yl)benzonitrile] | > 1.5 | ≤ 100
O=C(NCc1ccon1)c1ccc(-c2cccc3c(C(=O)N4CCCCC4)cnn23)cn1 [Example 89, N-(isoxazol-3-ylmethyl)-5-(3-(piperidine-1-carbonyl)pyrazolo[1,5-a]pyridin-7-yl)picolinamide] | > 1.5 | ≤ 100
O=C1NCc2ccc(-c3cccc4c(C(=O)N5CCC(F)CC5)cnn34)cc21 [Example 155, 6-(3-(4-fluoropiperidine-1-carbonyl)pyrazolo[1,5-a]pyridin-7-yl)isoindolin-1-one] | > 1.5 | ≤ 100
O=C(Cc1cncc(F)c1)Nc1cncc(-c2cccc3c(C(=O)N4CCCCC4)cnn23)c1 [Example 402, 2-(5-fluoropyridin-3-yl)-N-(5-(3-(piperidine-1-carbonyl)pyrazolo[1,5-a]pyridin-7-yl)pyridin-3-yl)acetamide] | > 1.5 | ≤ 100
O=C(c1cnn2c(-c3ccc(N4CC(O)C4)nc3)cccc12)N1CCCCC1 [Example 210, (7-(6-(3-hydroxyazetidin-1-yl)pyridin-3-yl)pyrazolo[1,5-a]pyridin-3-yl)(piperidin-1-yl)methanone] | > 1.5 | ≤ 100
Nc1cncc(-c2cccc3c(C(=O)N4CCCCC4)cnn23)c1 [Example 9, (7-(5-aminopyridin-3-yl)pyrazolo[1,5-a]pyridin-3-yl)(piperidin-1-yl)methanone] | > 1.5 | ≤ 100
O=C(c1cnn2c(-c3cc(Br)cnc3F)cccc12)N1CCCCC1 [Example 265, (7-(5-bromo-2-fluoropyridin-3-yl)pyrazolo[1,5-a]pyridin-3-yl)(piperidin-1-yl)methanone] | > 1.5 | ≤ 100
O=C(c1cnn2c(-c3cc(F)cc(Cl)c3)cccc12)N1CCCCC1 [Example 279, (7-(3-chloro-5-fluorophenyl)pyrazolo[1,5-a]pyridin-3-yl)(piperidin-1-yl)methanone] | < 1.5 | ≤ 100
O=C(c1cnn2c(-c3ccnc(Cl)c3)cccc12)N1CCCCC1 [Example 8, (7-(2-chloropyridin-4-yl)pyrazolo[1,5-a]pyridin-3-yl)(piperidin-1-yl)methanone] | > 1.5 | ≤ 100

SMILES | fold induction at 1 µM (A549 cells) | IC50 (human 15-PGDH) [nM]
CC(C)N1Cc2ccc(-c3cccc4c(C(=O)N5CCCCC5)cnn34)cc2C1=O [Example 142, 2-isopropyl-6-(3-(piperidine-1-carbonyl)pyrazolo[1,5-a]pyridin-7-yl)isoindolin-1-one] | > 1.5 | ≤ 100
O=C(c1cnn2c(-c3ccc(-c4noc(C(F)(F)F)n4)cc3)cccc12)N1CCCCC1 [Example 361, 1-piperidyl-[7-[4-[5-(trifluoromethyl)-1,2,4-oxadiazol-3-yl]phenyl]pyrazolo[1,5-a]pyridin-3-yl]methanone] | > 1.5 | ≤ 100
CN(C)CCNC(=O)c1ccc(-c2cccc3c(C(=O)N4CCCCC4)cnn23)cn1 [Example 79, N-(2-(dimethylamino)ethyl)-5-(3-(piperidine-1-carbonyl)pyrazolo[1,5-a]pyridin-7-yl)picolinamide] | > 1.5 | ≤ 100
O=C(Nc1ccc(-c2cccc3c(C(=O)N4CCCCC4)cnn23)cc1)C1CCCCC1 [Example 102, N-(4-(3-(piperidine-1-carbonyl)pyrazolo[1,5-a]pyridin-7-yl)phenyl)cyclohexanecarboxamide] | < 1.5 | ≤ 100
O=C(c1cnn2c(Nc3ccc[nH]c3=O)cccc12)N1CCCCC1 [Example 147, 3-((3-(piperidine-1-carbonyl)pyrazolo[1,5-a]pyridin-7-yl)amino)pyridin-2(1H)-one] | > 1.5 | ≤ 100
O=C(c1ccc(-c2cccc3c(C(=O)N4CCCCC4)cnn23)cn1)N1CCOCC1 [Example 74, (7-(6-(morpholine-4-carbonyl)pyridin-3-yl)pyrazolo[1,5-a]pyridin-3-yl)(piperidin-1-yl)methanone] | > 1.5 | ≤ 100
CN1CCN(C(=O)c2ccc(-c3cccc4c(C(=O)N5CCCCC5)cnn34)cn2)CC1 [Example 83, (4-methylpiperazin-1-yl)(5-(3-(piperidine-1-carbonyl)pyrazolo[1,5-a]pyridin-7-yl)pyridin-2-yl)methanone] | > 1.5 | ≤ 100
Cc1nc(-c2ccc(-c3cccc4c(C(=O)N5CCCCC5)cnn34)c(F)c2)no1 [Example 296, [7-[2-fluoro-4-(5-methyl-1,2,4-oxadiazol-3-yl)phenyl]pyrazolo[1,5-a]pyridin-3-yl]-(1-piperidyl)methanone] | > 1.5 | ≤ 100
O=C(c1cnn2c(-c3ccc(N4CCC5(CCC5)C4)nc3)cccc12)N1CCCCC1 [Example 223, (7-(6-(6-azaspiro[3.4]octan-6-yl)pyridin-3-yl)pyrazolo[1,5-a]pyridin-3-yl)(piperidin-1-yl)methanone] | > 1.5 | ≤ 100
O=C(c1cnn2c(-c3ccc(-c4cnc(O)nc4)cc3)cccc12)N1CCCCC1 [Example 306, [7-[4-(2-hydroxypyrimidin-5-yl)phenyl]pyrazolo[1,5-a]pyridin-3-yl]-(1-piperidyl)methanone] | > 1.5 | ≤ 100
O=C(Cc1ccc(C(F)(F)F)nc1)Nc1cncc(-c2cccc3c(C(=O)N4CCCCC4)cnn23)c1 [Example 388, N-(5-(3-(piperidine-1-carbonyl)pyrazolo[1,5-a]pyridin-7-yl)pyridin-3-yl)-2-(6-(trifluoromethyl)pyridin-3-yl)acetamide] | > 1.5 | ≤ 100
CC1c2cc(-c3cccc4c(C(=O)N5CCCCC5)cnn34)cnc2C(=O)N1C (centres unmarked) [Example 280, 5,6-dimethyl-3-(3-(piperidine-1-carbonyl)pyrazolo[1,5-a]pyridin-7-yl)-5,6-dihydro-7H-pyrrolo[3,4-b]pyridin-7-one] | > 1.5 | ≤ 100
O=C(c1cnn2c(-c3ccc4c(=O)[nH]ncc4c3)cccc12)N1CCCCC1 [Example 233, 6-(3-(piperidine-1-carbonyl)pyrazolo[1,5-a]pyridin-7-yl)phthalazin-1(2H)-one] | > 1.5 | ≤ 100
O=C(Nc1ccncc1)c1ccc(-c2cccc3c(C(=O)N4CCCCC4)cnn23)cn1 [Example 88, 5-(3-(piperidine-1-carbonyl)pyrazolo[1,5-a]pyridin-7-yl)-N-(pyridin-4-yl)picolinamide] | > 1.5 | ≤ 100
CNC(=O)c1ccc(-c2cccc3c(C(=O)N4CCCCC4)cnn23)cn1 [Example 75, N-methyl-5-(3-(piperidine-1-carbonyl)pyrazolo[1,5-a]pyridin-7-yl)picolinamide] | > 1.5 | ≤ 100
